Test results as given in article PMC12270663, “Cagrilintide lowers bodyweight through brain amylin receptors 1 and 3” (eBioMedicine, 2025).

Columns and labels:
[1] = tested on: AP neurons of WT, RAMP1 KO, RAMP3 KO and RAMP1/3 KO mice; experiment: Study 4 cohort 2: cFos positive neurons, AP; type: in vivo, mouse; settings: 3 nmol/kg i.p.
Protocol: (§1) Mice were group housed in a controlled environment maintained at 21 ± 2 °C, under a 12/12 h light–dark cycle (lights off at 11.00 h). In the first cohort, 25 male WT and 25 male RAMP1/3 KO mice aged between 12 and 20 week-old were fed chow diet and maintained under group housing condition. In the second cohort, 18 male WT, 18 male RAMP1 KO, 18 male RAMP3 KO and 18 male RAMP1/3 KO mice aged between 10 and 15 week-old were fed chow diet and maintained under group housing condition.
Cohort 2: WT, RAMP1 KO, RAMP3 KO and RAMP1/3 KO were injected i.p. at dark onset after a 12 h fast in the light phase with vehicle or cagrilintide (3 nmol/kg) (n = 6/group).
(§2) For both cohorts, animals were deeply anesthetised 90 min later (pentobarbital 100 mg/kg, i.p) and transcardially perfused with cold 0.1 M of phosphate buffer (PB) for 1.5 min followed by 4% of paraformaldehyde (PFA) in PB for 2.5 min. […]
(§3) Photomicrographs of all sections containing AP, NTS and LPBN were taken at 20× magnification using Zeiss Axio Scan.Z1 slidescanner (Center for Microscopy and Image Analysis UZH, Zeiss, Germany). […] Scanned images were imported into QuPath (QuPath 0.5.0) for quantification. Three to four sections were counted and averaged per area of interest. […] The numbers of positive counted DAPI cells containing a cFos signal were automatically counted within the region. […]

[2] = tested on: WT and RAMP1/3 KO high fat diet fed mice; experiment: Study 3: 3-week treatment, food intake and body weight; type: in vivo, mouse
Protocol: Male mice were housed in a controlled environment maintained at 21 ± 2 °C, under a 12/12 h light–dark cycle (lights off at 11.00 h). Mice had ad libitum access to standard chow (3.14 kcal/g of food; Kliba, Switzerland, cat# 3436) and water, until 3–4 weeks old. Twenty-four WT and twenty-four RAMP 1/3 KO male mice were fed a 60% fat HFD (5.24 kcal/g of food; SSNIFF Spezialdiäten GmbH, Germany, cat# EF D12452) provided ad libitum for 18 weeks. Then mice were fed to a 45% fat HFD (4.73 kcal/g of food; SSNIFF Spezialdiäten GmbH, Germany, cat# EF D12451) provided ad libitum for 6 weeks until the end of the study. The mice were group housed (3–4 mice per cage) until 1 week before the 21-day treatment period. Each cage was equipped with a red plastic house, tissue paper, nest-building material and wood shavings. Prior to the 21-day treatment, mice were injected with vehicle for three days to acclimate to the daily subcutaneous injections and reduce stress associated with the injections.
(§4) Mice were s.c. injected once a day for 3 weeks 1 h before dark onset between 9.00 and 10.00 h. Prior to injection, daily body weight and food intake were measured manually. On the day of sacrifice, mice were anesthetised with pentobarbital (100 mg/kg, i.p., Cantonal Pharmacy of Zurich, Switzerland) 24 h after receiving the last dose of peptide.

[3] = tested on: LPBN neurons of WT and RAMP1/3 KO mice; experiment: Study 4 cohort 1: cFos positive neurons, LPBN; type: in vivo, mouse; settings: both 3 nmol/kg i.p., 90 min
Protocol: as §1
as §2, with “min. Brains were removed and postfixed overnight in 4% of PFA and cryoprotected in 20% of sucrose-PB for 24 h. Brains were frozen in hexane on dry ice and stored at −80 °C until sectioning.” for “min.”
as §3

[4] = tested on: area postrema (AP) neurons of WT and RAMP1/3 KO mice; experiment: Study 4 cohort 1: cFos positive neurons, AP; type: in vivo, mouse; settings: for Predicted (LS) mean diff., AP cFos after square root transformation: second statistical test, Figure 4b
Protocol: as §1
For both cohorts, animals were deeply anesthetised 90 min later (pentobarbital 100 mg/kg, i.p) and transcardially perfused with cold 0.1 M of phosphate buffer (PB) for 1.5 min followed by 4% of paraformaldehyde (PFA) in PB for 2.5 min. Brains were removed and postfixed overnight in 4% of PFA and cryoprotected in 20% of sucrose-PB for 24 h. Brains were frozen in hexane on dry ice and stored at −80 °C until sectioning. Stereological brain sampling of the areas of interest was performed and brain were serially cut on a cryostat (Leica Biosystems, Germany, cat# CM3050S), mounted on Superfrost Plus slides (Thermo Fisher Scientific, Reinach, Switzerland), and cryoprotected in 50% of PB, 30% of ethylene glycol, 20% of glycerol, and subsequently stored at −20 °C.
Blocking of the mouse brain sections was performed with 0.4% Triton–4% normal goat serum in PBS for 2 h at room temperature. AP/NTS and LPBN sections were incubated at 4 °C for 48 h with rabbit anti-Fos antibody (1:500, Cell signalling technology, Switzerland, Cat# 2250, RRID: AB_2247211), and then after PBS washes, incubated with goat anti-rabbit Alexa Fluor CY3 (1:200, LuBio Science GmbH, Switzerland for Jackson Immunoresearch, Cat# 111-165-144) or alexa fluor 488 for 2 h at room temperature. After thorough washing in PBS, the sections were counterstained with DAPI, mounted immediately and coverslipped with Vectashield antifade Mounting Medium (Vectorlabs, Burlingame, USA, cat# H-1400).[40]
Photomicrographs of all sections containing AP, NTS and LPBN were taken at 20× magnification using Zeiss Axio Scan.Z1 slidescanner (Center for Microscopy and Image Analysis UZH, Zeiss, Germany). All images for each study were acquired using the same exposure time. Scanned images were imported into QuPath (QuPath 0.5.0) for quantification. Three to four sections were counted and averaged per area of interest. A polygon tool was used manually to determine the boundary of the region of interest of the brain section. A cell detection tool was used to detect every cell in the section by using a built-in cell segmentation algorithm. The cell detection tool was used on the DAPI channel to make sure that only a cell was recognised and not the background or artefact by system. A detection classifier was created by using the create detection classifier function. The numbers of positive counted DAPI cells containing a cFos signal were automatically counted within the region. The experimental group was blinded to the experimenter during the analysis.

[5] = tested on: WT and RAMP1/3 KO high fat diet fed mice; experiment: Study 3: body composition by EchoMRI; type: in vivo, mouse; settings: 3 nmol/kg/d s.c., 3 weeks
Protocol: as §4
Brains were harvested, snap frozen on dry ice and kept at −80 °C until mRNA extraction for next-generation sequencing (NGS) analysis. Blood samples were collected from the right ventricle of the heart during the sacrifice in 1 mL EDTA-coated tubes containing dipeptidyl peptidase-4 inhibitor (10 μL/mL blood; Sigma Aldrich, Switzerland, cat# DPP4-010) and protease inhibitor (30 μL/mL blood; Sigma Aldrich, Switzerland, cat# P2714). After centrifugation, plasma was kept at −80 °C. The mice were stored at −20 °C until body composition analysis was performed.
Lean and fat mass were measured post-mortem using EchoMRI (EchoMRI LLC, USA) at the Zurich Integrative Rodent Physiology (University of Zurich). Calibrations and measurements were performed according to manufacturer's instructions. Two measurements were performed and averaged per mouse. Fat mass and lean mass values are expressed as percent of body weight.

[6] = tested on: rAMYR3; set-up: method as in PMID 34288673; settings: pEC50 = -LogEC50; cited from earlier work
[7] = tested on: rCTR(a); set-up: method as in PMID 34288673; settings: pEC50 = -LogEC50; cited from earlier work
[8] = tested on: WT 129S2 chow-fed mice; experiment: Study 1: acute food intake and body weight response; type: in vivo, mouse; settings: all doses (3, 30, 300 nmol/kg s.c.)
Protocol: Thirty-two 12 week-old male WT 129S2/SvEv mice (Janvier Elevage, France) were individually housed in food monitoring cages (BioDAQ, New Brunswick, NJ, USA). Mice were housed in a controlled environment maintained at 21 ± 2 °C, under a 12/12 h light–dark cycle (lights off at 10.00 h). They were adapted to the cages and hoppers for 2 weeks before being tested. Mice were fed water and chow diet ad libitum (3.14 kcal/g of food; Kliba, Switzerland, cat# 3436).
Mice were injected subcutaneously (s.c.) at dark onset after a 4 h fast in the light phase with vehicle, 3 nmol/kg, 30 nmol/kg or 300 nmol/kg of cagrilintide.

## CC[C@H](C)[C@H](NC(=O)[C@@H]1CCCN1C(=O)CNC(=O)[C@H](Cc1ccccc1)NC(=O)[C@H](CC(N)=O)NC(=O)[C@H](CC(N)=O)NC(=O)[C@H](CO)NC(=O)[C@H](CO)NC(=O)[C@H](Cc1c[nH]cn1)NC(=O)[C@H](CCCNC(=N)N)NC(=O)[C@H](CC(C)C)NC(=O)[C@H](Cc1ccccc1)NC(=O)[C@H](CCC(=O)O)NC(=O)[C@H](C)NC(=O)[C@H](CC(C)C)NC(=O)[C@H](CCCNC(=N)N)NC(=O)[C@H](CCC(N)=O)NC(=O)[C@@H](NC(=O)[C@H](C)NC(=O)[C@@H]1CSSC[C@H](NC(=O)[C@H](CCCCN)NC(=O)CC[C@H](NC(=O)CCCCCCCCCCCCCCCCCCC(=O)O)C(=O)O)C(=O)N[C@@H](CC(N)=O)C(=O)N[C@@H]([C@@H](C)O)C(=O)N[C@@H](C)C(=O)N[C@@H]([C@@H](C)O)C(=O)N1)[C@@H](C)O)C(=O)N[C@@H](CC(C)C)C(=O)N1CCC[C@H]1C(=O)N1CCC[C@H]1C(=O)N[C@H](C(=O)N[C@@H](CC(N)=O)C(=O)N[C@H](C(=O)NCC(=O)N[C@@H](CO)C(=O)N[C@@H](CC(N)=O)C(=O)N[C@H](C(=O)N1CCC[C@H]1C(N)=O)[C@@H](C)O)C(C)C)[C@@H](C)O [Cagrilintide]
[1]
  decrease of activated AP neurons in RAMP1/3 KO compared to WT-injected mice: 40%
[2]; RAMP1/3 KO mice, 3 nmol/kg/d s.c., 21 days
  effect on body weight: no effect
[2]; RAMP1/3 KO mice, cagrilintide 3, sCT 150 nmol/kg s.c.
  acute anorectic effect on day 1: no effect
[2]; WT mice, 3 nmol/kg/d s.c.
  day 21 body weight loss vs WT Veh: −66%
[2]; WT mice, cagrilintide 3, sCT 150 nmol/kg s.c. SID, mean ± SEM, n = 8/group
  Body weight change after 3-week treatment: -3.4 ± 0.51 g
[2]; WT mice, cagrilintide 3, sCT 150 nmol/kg s.c., mean ± SEM, n = 7–8/group
  Food intake on Day 1: 1.2 ± 0.1 g
[3]
  cFos activated neurons in the LPBN, cagrilintide compared to sCT: −36%
[4]; 3 nmol/kg i.p., cohort 1, n = 5–6/group
  less cFos activated AP neurons in RAMP1/3 KO vs WT mice: 57%
[4]; Cagrilintide (3 nmol/kg), WT vs. RAMP 1/3 KO
  Predicted (LS) mean diff., AP cFos after square root transformation: 2.537
[4]; RAMP 1/3 KO, Vehicle vs. Cagrilintide (3 nmol/kg), Tukey
  Predicted (LS) mean diff., AP cFos after square root transformation: -3.878
[4]; WT, Vehicle vs. Cagrilintide (3 nmol/kg), Tukey
  Predicted (LS) mean diff., AP cFos after square root transformation: -6.224
[4]; both 3 nmol/kg i.p., WT and KO mice, 90 min
  cFos activated neurons in the AP, cagrilintide compared to sCT: −75%
[5]
  relative fat mass, RAMP1/3 KO compared to WT-treated counterparts: +32%
  relative lean mass, RAMP1/3 KO compared to WT-treated counterparts: −22%
[6]
  Functional assay pEC50 [95% CI], cAMP, rAMYR3: 9.46 [0.03] M
[7]
  Functional assay pEC50 [95% CI], cAMP, rCTR(a): 9.54 [n.d] M
[8]
  acute effect on eating: significantly reduced eating
